# Results published in ChEMBL document CHEMBL3414487, “Synthesis and biological activity of salinomycin conjugates with floxuridine” (Eur J Med Chem, 2015).
# Legend:
# [1] = test system: BALB/3T3; test: Antiproliferative activity against mouse BALB/3T3 cells assessed as growth inhibition after 72 hrs by SRB method; format: cell-based; settings: BALB/3T3, 72 h
# [2] = test system: LoVo; test: Antiproliferative activity against human LoVo cells assessed as growth inhibition after 72 hrs by SRB method; format: functional, cell-based; settings: for IC50: Homo sapiens, LoVo, 72 h
# [3] = Antiproliferative activity against human vincristine-resistant HL60/Vinc cells assessed as growth inhibition after 72 hrs by MTT assay; format: functional; settings: Homo sapiens, HL60/vinc, 72 h
# [4] = Antiproliferative activity against human SW707 cells assessed as growth inhibition after 72 hrs by SRB method; format: functional, cell-based; settings: for IC50: Homo sapiens, SW707, 72 h
# [5] = test system: HT-29; test: Antiproliferative activity against human HT-29 cells assessed as growth inhibition after 72 hrs by SRB method; format: functional, cell-based; settings: for IC50: Homo sapiens, HT-29, 72 h
# [6] = Antiproliferative activity against human doxorubicin-resistant LoVo/DX cells assessed as growth inhibition after 72 hrs by SRB method; format: functional, cell-based
# [7] = test system: Staphylococcus aureus; test: Antimicrobial activity against methicillin-resistant Staphylococcus aureus 514/11 after 18 hrs by two-fold serial microdilution method; format: functional; settings: 514/11, 18 h
# [8] = test system: Staphylococcus aureus; test: Antimicrobial activity against methicillin-resistant Staphylococcus aureus 522/12 after 18 hrs by two-fold serial microdilution method; format: functional; settings: 522/12, 18 h
# [9] = test system: Staphylococcus aureus; test: Antimicrobial activity against Staphylococcus aureus ATCC 29213 after 18 hrs by two-fold serial microdilution method; format: functional; settings: ATCC 29213, 18 h
# [10] = test system: Staphylococcus epidermidis; test: Antimicrobial activity against methicillin-resistant Staphylococcus epidermidis 488/11 after 18 hrs by two-fold serial microdilution method; format: functional; settings: 488/11, 18 h
# [11] = test system: Staphylococcus aureus; test: Antimicrobial activity against methicillin-resistant Staphylococcus aureus 462/11 after 18 hrs by two-fold serial microdilution method; format: functional; settings: 462/11, 18 h
# [12] = Selectivity index, ratio of IC50 for mouse BALB/3T3 cells to IC50 for human LoVo/DX cells; format: functional
# [13] = test system: Staphylococcus aureus; test: Antimicrobial activity against methicillin-resistant Staphylococcus aureus 452/11 after 18 hrs by two-fold serial microdilution method; format: functional; settings: 452/11, 18 h
# [14] = test system: Staphylococcus epidermidis; test: Antimicrobial activity against Staphylococcus epidermidis ATCC 12228 after 18 hrs by two-fold serial microdilution method; format: functional; settings: ATCC 12228, 18 h
# [15] = test system: Staphylococcus aureus; test: Antimicrobial activity against methicillin-resistant Staphylococcus aureus 585/12 after 18 hrs by two-fold serial microdilution method; format: functional; settings: 585/12, 18 h
# [16] = test system: Staphylococcus epidermidis; test: Antimicrobial activity against methicillin-resistant Staphylococcus epidermidis 468/11 after 18 hrs by two-fold serial microdilution method; format: functional; settings: 468/11, 18 h
# [17] = test system: Staphylococcus epidermidis; test: Antimicrobial activity against methicillin-resistant Staphylococcus epidermidis 466/11 after 18 hrs by two-fold serial microdilution method; format: functional; settings: 466/11, 18 h
# [18] = test system: Staphylococcus epidermidis; test: Antimicrobial activity against methicillin-resistant Staphylococcus epidermidis 469/11 after 18 hrs by two-fold serial microdilution method; format: functional; settings: 469/11, 18 h
# [19] = Selectivity index, ratio of IC50 for mouse BALB/3T3 cells to IC50 for human HL60/Vinc cells; format: functional
# [20] = Antiproliferative activity against human LS180 cells assessed as growth inhibition after 72 hrs by SRB method; format: functional, cell-based
# [21] = test system: Staphylococcus epidermidis; test: Antimicrobial activity against methicillin-resistant Staphylococcus epidermidis 467/11 after 18 hrs by two-fold serial microdilution method; format: functional; settings: 467/11, 18 h
# [22] = test system: Staphylococcus aureus; test: Antimicrobial activity against methicillin-resistant Staphylococcus aureus 586/12 after 18 hrs by two-fold serial microdilution method; format: functional; settings: 586/12, 18 h
# [23] = test system: Staphylococcus epidermidis; test: Antimicrobial activity against methicillin-resistant Staphylococcus epidermidis 460/11 after 18 hrs by two-fold serial microdilution method; format: functional; settings: 460/11, 18 h
# [24] = test system: Staphylococcus aureus; test: Antimicrobial activity against Staphylococcus aureus ATCC 6538 after 18 hrs by two-fold serial microdilution method; format: functional; settings: ATCC 6538, 18 h
# [25] = test system: Staphylococcus aureus; test: Antimicrobial activity against methicillin-resistant Staphylococcus aureus 572/12 after 18 hrs by two-fold serial microdilution method; format: functional; settings: 572/12, 18 h
# [26] = test system: Staphylococcus aureus; test: Antimicrobial activity against Staphylococcus aureus ATCC 25923 after 18 hrs by two-fold serial microdilution method; format: functional; settings: ATCC 25923, 18 h
# [27] = test system: Staphylococcus epidermidis; test: Antimicrobial activity against Staphylococcus epidermidis ATCC 35984 after 18 hrs by two-fold serial microdilution method; format: functional; settings: ATCC 35984, 18 h
# [28] = test system: Staphylococcus aureus; test: Antimicrobial activity against methicillin-resistant Staphylococcus aureus 537/12 after 18 hrs by two-fold serial microdilution method; format: functional; settings: 537/12, 18 h
# [29] = test system: HL-60; test: Selectivity index, ratio of IC50 for mouse BALB/3T3 cells to IC50 for human HL60 cells; format: functional
# [30] = test system: Staphylococcus aureus; test: Antimicrobial activity against methicillin-resistant Staphylococcus aureus 573/12 after 18 hrs by two-fold serial microdilution method; format: functional; settings: 573/12, 18 h
# [31] = test system: Staphylococcus epidermidis; test: Antimicrobial activity against methicillin-resistant Staphylococcus epidermidis 459/11 after 18 hrs by two-fold serial microdilution method; format: functional; settings: 459/11, 18 h
# [32] = Antiproliferative activity against human HL60 cells assessed as growth inhibition after 72 hrs by MTT assay; format: functional, cell-based; settings: HL-60, 72 h
# [33] = test system: Staphylococcus aureus; test: Antimicrobial activity against methicillin-resistant Staphylococcus aureus 456/11 after 18 hrs by two-fold serial microdilution method; format: functional; settings: 456/11, 18 h
# [34] = test system: Staphylococcus aureus; test: Antimicrobial activity against Staphylococcus aureus […] 4163 after 18 hrs by two-fold serial microdilution method; format: functional
# [35] = test system: HL-60; test: Resistance index, ratio of IC50 for human HL60/Vinc cells to IC50 for human HL60 cells
# [36] = test system: Staphylococcus epidermidis; test: Antimicrobial activity against methicillin-resistant Staphylococcus epidermidis 461/11 after 18 hrs by two-fold serial microdilution method; format: functional; settings: 461/11, 18 h
# [37] = test system: Staphylococcus epidermidis; test: Antimicrobial activity against methicillin-resistant Staphylococcus epidermidis 470/11 after 18 hrs by two-fold serial microdilution method; format: functional; settings: 470/11, 18 h
# [38] = test system: Staphylococcus epidermidis; test: Antimicrobial activity against methicillin-resistant Staphylococcus epidermidis 489/11 after 18 hrs by two-fold serial microdilution method; format: functional; settings: 489/11, 18 h
# [39] = Selectivity index, ratio of IC50 for mouse BALB/3T3 cells to IC50 for human SW707 cells; format: functional
# [40] = Selectivity index, ratio of IC50 for mouse BALB/3T3 cells to IC50 for human LS180 cells; format: functional
# [41] = test system: LoVo; test: Resistance index, ratio of IC50 for human LoVo/DX cells to IC50 for human LoVo cells
# [42] = test system: HT-29; test: Selectivity index, ratio of IC50 for mouse BALB/3T3 cells to IC50 for human HT-29 cells; format: functional
# [43] = test system: LoVo; test: Selectivity index, ratio of IC50 for mouse BALB/3T3 cells to IC50 for human LoVo cells; format: functional
smiles,measurement,setting,value
COc1cccc2c1C(=O)c1c(O)c3c(c(O)c1C2=O)C[C@@](O)(C(=O)CO)C[C@@H]3O[C@H]1C[C@H](N)[C@H](O)[C@H](C)O1 [DOXORUBICIN],IC50,[1],180 nM
same,IC50,[2],150 nM
same,IC50,[3],880 nM
same,IC50,[4],180 nM
same,IC50,[5],890 nM
same,IC50,[6],5460 nM
[N-]=[N+]=N[C@H]1C[C@H](n2cc(F)c(=O)[nH]c2=O)O[C@@H]1CO,MIC,[7],3.69 µM
same,MIC,[8],7.38 µM
same,MIC,[9],7.38 µM
same,MIC,[10],0.92 µM
same,MIC,[11],7.38 µM
same,Selectivity Index,[12],0.34
same,MIC,[13],3.69 µM
same,MIC,[14],1.85 µM
same,MIC,[15],3.69 µM
same,MIC,[16],0.92 µM
same,IC50,[1],97300 nM
same,MIC,[17],0.46 µM
same,MIC,[18],3.69 µM
same,Selectivity Index,[19],0.33
same,inhibition (INH),[2],43%
same,IC50,[3],294000 nM
same,inhibition (INH),[4],41%
same,inhibition (INH),[20],25%
same,MIC,[21],0.92 µM
same,MIC,[22],3.69 µM
same,MIC,[23],0.92 µM
same,inhibition (INH),[5],25%
same,MIC,[24],3.69 µM
same,MIC,[25],3.69 µM
same,MIC,[26],3.69 µM
same,MIC,[27],7.38 µM
same,MIC,[28],7.38 µM
same,Selectivity Index,[29],0.54
same,MIC,[30],7.38 µM
same,MIC,[31],0.92 µM
same,IC50,[32],180000 nM
same,MIC,[33],3.69 µM
same,MIC,[34],3.69 µM
same,Ratio IC50,[35],1.63
same,IC50,[6],290000 nM
same,MIC,[36],1.85 µM
same,MIC,[37],0.92 µM
same,MIC,[38],3.69 µM
CC[C@@H](C(=O)[C@@H](C)[C@@H](O)[C@H](C)[C@@H]1O[C@@H]([C@@H](CC)C(=O)OC[C@H]2O[C@@H](n3cc(F)c(=O)[nH]c3=O)C[C@@H]2O)CC[C@@H]1C)[C@H]1O[C@]2(C=C[C@@H](O)[C@]3(CC[C@@](C)([C@H]4CC[C@](O)(CC)[C@H](C)O4)O3)O2)[C@H](C)C[C@@H]1C,MIC,[7],8.17 µM
same,MIC,[8],8.17 µM
same,MIC,[9],4.09 µM
same,MIC,[10],32.7 µM
same,Selectivity Index,[39],16.22
same,Selectivity Index,[40],14.35
same,MIC,[11],32.7 µM
same,Selectivity Index,[12],34.71
same,MIC,[13],32.7 µM
same,MIC,[14],4.09 µM
same,Ratio IC50,[41],0.64
same,MIC,[15],16.3 µM
same,Selectivity Index,[42],15.98
same,MIC,[16],32.7 µM
same,IC50,[1],32300 nM
same,MIC,[17],32.7 µM
same,MIC,[18],32.7 µM
same,Selectivity Index,[19],11.45
same,IC50,[2],1460 nM
same,Selectivity Index,[43],22.11
same,IC50,[3],2820 nM
same,IC50,[4],1990 nM
same,IC50,"[20]; Homo sapiens, LS180, 72 h",2250 nM
same,MIC,[21],32.7 µM
same,MIC,[22],8.17 µM
same,MIC,[23],32.7 µM
same,IC50,[5],2020 nM
same,MIC,[24],4.09 µM
same,MIC,[25],8.17 µM
same,MIC,[26],8.17 µM
same,MIC,[27],4.09 µM
same,MIC,[28],8.17 µM
same,Selectivity Index,[29],87.24
same,MIC,[30],8.17 µM
same,MIC,[31],32.7 µM
same,IC50,[32],370 nM
same,MIC,[33],32.7 µM
same,MIC,[34],8.17 µM
same,Ratio IC50,[35],7.62
same,IC50,[6],930 nM
same,MIC,[36],32.7 µM
same,MIC,[37],8.17 µM
same,MIC,[38],8.17 µM
